Laboratory results published in patent EP0207202A1, “Anti-tumor platinum complexes” (Kidani, Yoshinori, priority 1985, dated 1987).
Where two headings read alike, the source gives them in different places.

Test system: Leukemia L-1210
Conditions: for T/C x 100 / number of mice cured after 30 days of the administration of the cells of Leukemia L-1210: 6 mice per group; for T/C x 100: ratio of mean survival time test/control x 100; for number of mice cured after 30 days of the administration of the cells of Leukemia L-1210: parenthesized figure
Source text: Cells of Leukemia L-1210 were intraperitoneally administered to each of groups of mice(6 animals per group) at a rate of 10^5 cells per mouse, and while breeding the mice of control group, each of the compounds of the present invention was intraperitoneally administered to each mouse of the test groups after one, five and nine days of the administration of the cells, the mice of the test groups being bred similarly to those of control group. After observing the mortality of all the mice, the mean survival time period after the administration of the cells was obtained in each group including control group.

[1] = 50 mg/kg intraperitoneally on days 1, 5 and 9 after 10^5 L-1210 cells i.p.
[2] = 100 mg/kg intraperitoneally on days 1, 5 and 9 after 10^5 L-1210 cells i.p.
[3] = 6.25 mg/kg intraperitoneally on days 1, 5 and 9 after 10^5 L-1210 cells i.p.
[4] = 12.5 mg/kg intraperitoneally on days 1, 5 and 9 after 10^5 L-1210 cells i.p.
[5] = 25 mg/kg intraperitoneally on days 1, 5 and 9 after 10^5 L-1210 cells i.p.
[6] = 25 mg/kg i.p. on days 1, 5 and 9
[7] = 50 mg/kg i.p. on days 1, 5 and 9
[8] = 100 mg/kg i.p. on days 1, 5 and 9

Substance | T/C x 100 [1] | T/C x 100 [2] | number of mice cured after 30 days of the administration of the cells of Leukemia L-1210 (6.25 mg/kg i.p. on days 1, 5 and 9) | T/C x 100 [3] | T/C x 100 [4] | T/C x 100 [5] | number of mice cured after 30 days of the administration of the cells of Leukemia L-1210 [6] | rate of life prolongation (T/C x 100) (Table 2, dose not stated) [%] | number of mice cured after 30 days of the administration of the cells of Leukemia L-1210 [7] | number of mice cured after 30 days of the administration of the cells of Leukemia L-1210 [8]
Pt(penta-O-acetyl-D-gluconato)2(trans-dl-AMCHA)·H2O [Compound No. 15] | 267 | 103 | – | – | – | – | – | – | – | –
PtCl(D-glucuronato)(cis-dl-AMCHA)·H2O [Compound No. 2] | – | – | 2 | 271 | 189 | 156 | – | – | – | –
PtCl(D-glucuronato)(trans-dl-AMCHA)·2H2O [Compound No. 1] | – | – | – | 144 | 118 | 293 | 2 | – | – | –
Pt(NO3)(tetra-O-acetyl-β-D-glucuronato)(cis-dl-AMCHA)·3/2H2O [Compound No. 10] | 242 | 157 | – | – | – | 204 | 1 | 400 | – | –
Pt(NO3)(tetra-O-acetyl-α-D-glucuronato)(cis-dl-AMCHA) [Compound No. 6] | 402 | 120 | – | – | – | 281 | 1 | – | 3 | –
Pt(NO3)(tetra-O-acetyl-β-D-glucuronato)(trans-dl-AMCHA)·2H2O [Compound No. 9] | 253 | 206 | – | – | – | – | – | – | 1 | 2
Pt(tetra-O-acetyl-α-D-glucuronato)2(cis-dl-AMCHA) [Compound No. 4] | 198 | 277 | – | – | – | 145 | – | – | 1 | 2
